# Assay results as given in publication doi:10.1101/2023.10.02.560523v1, “Quantitative target engagement of RIPK1 in human whole blood via the cellular thermal shift assay for potential pre-clinical and clinical applications” (biorxiv, 2023).
# Target: T1, RIPK1 (receptor interacting serine/threonine-protein kinase 1) (Homo sapiens, UniProt Q13546)
# T1 construct: endogenous untagged full-length protein in unprocessed human whole blood of healthy donors
# T1 sequence (Q13546 1-671): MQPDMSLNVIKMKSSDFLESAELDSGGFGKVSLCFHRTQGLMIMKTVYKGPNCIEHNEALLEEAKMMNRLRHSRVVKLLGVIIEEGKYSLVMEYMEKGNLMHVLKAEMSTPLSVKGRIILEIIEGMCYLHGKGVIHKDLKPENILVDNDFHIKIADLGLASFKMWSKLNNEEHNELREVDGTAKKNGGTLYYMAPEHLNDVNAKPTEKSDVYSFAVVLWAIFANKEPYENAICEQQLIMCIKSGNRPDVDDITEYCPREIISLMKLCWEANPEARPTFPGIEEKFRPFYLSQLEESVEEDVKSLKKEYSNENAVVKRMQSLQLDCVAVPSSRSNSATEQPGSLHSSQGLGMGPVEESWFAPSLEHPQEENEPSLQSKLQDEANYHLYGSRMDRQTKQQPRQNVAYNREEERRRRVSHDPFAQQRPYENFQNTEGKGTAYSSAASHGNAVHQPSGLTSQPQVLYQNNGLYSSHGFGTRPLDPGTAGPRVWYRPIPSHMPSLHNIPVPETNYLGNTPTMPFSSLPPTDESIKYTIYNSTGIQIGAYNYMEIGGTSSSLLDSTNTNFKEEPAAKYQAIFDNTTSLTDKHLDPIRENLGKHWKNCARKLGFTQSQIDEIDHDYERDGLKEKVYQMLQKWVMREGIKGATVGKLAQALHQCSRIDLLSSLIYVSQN
# Experiment: MSD TEAR1 occupancy immunoassay, human whole blood
# Format: cell-based
# Details: 1 h at 37 °C with compound, no heating; N=1 donor; unreliable
# Description: MSD TEAR1 occupancy immunoassay, human whole blood on RIPK1 (receptor interacting serine/threonine-protein kinase 1)
structure (smiles),measurement,value
COc1ccc(-n2c(SCC#N)nc3sc4c(c3c2=O)CCCC4)cc1 [necrostatin 5],EC50,0.34 µM
